Assays:
Trichosporon beigelii = test: Antifungal activity against Trichosporon beigelii 1188 by microdilution method; assay type: functional
Candida albicans [1] = test: Antifungal activity against Candida albicans ATCC 90028 by microdilution method; assay type: functional
Candida tropicalis = test: Antifungal activity against Candida tropicalis 156 by microdilution method; assay type: functional
Candida parapsilosis = test: Antifungal activity against Candida parapsilosis ATCC 22019 by microdilution method; assay type: functional; details: Lodderomyces parapsilosis
Pichia kudriavzevii [2] = test: Antifungal activity against Candida krusei E28 by microdilution method; assay type: functional
Clavispora lusitaniae = test: Antifungal activity against Clavispora lusitaniae 2446/I by microdilution method
[3] = system: Trichophyton mentagrophytes; test: Antifungal activity against Trichophyton mentagrophytes 445 by microdilution method; assay type: functional
Nakaseomyces glabratus = test: Antifungal activity against Candida glabrata 20/I by microdilution method; assay type: functional
Aspergillus fumigatus = test: Antifungal activity against Aspergillus fumigatus 231 by microdilution method; assay type: functional
Pichia kudriavzevii [4] = test: Antifungal activity against Candida krusei ATCC 6258 by microdilution method; assay type: functional
Lichtheimia corymbifera = test: Antifungal activity against Absidia corymbifera 272 by microdilution method; assay type: functional
Candida albicans [5] = test: Antifungal activity against Candida albicans ATCC 44859 by microdilution method; assay type: functional
Nannizzia gypsea = test: Antifungal activity against Microsporum gypseum by microdilution method; assay type: functional

Measured: MIC

CC(=O)OCC1C=C(c2cccc(Cl)c2)C(=O)OC1 (centres undefined)
≥ 62.5 µM: all assays above

CC(C)(C)C(=O)OCC1C=C(c2cccc(Cl)c2)C(=O)OC1 (centres undefined)
≥ 62.5 µM: all assays above

COc1ccc(C2=CC(COC(=O)C(C)(C)C)COC2=O)cc1 (centres undefined)
≥ 62.5 µM: all assays above

COc1ccc(C2=CC(COC(=O)c3ccccc3)COC2=O)cc1 (centres undefined)
≥ 62.5 µM: all assays above

O=C1OCC(COC(=O)c2ccccc2)C=C1c1ccccc1 (centres undefined)
≥ 62.5 µM: all assays above

CC(C)(C)C(=O)OCC1C=C(c2ccc(Br)cc2)C(=O)OC1 (centres undefined)
≥ 62.5 µM: all assays above

CC(=O)OCC1C=C(c2ccccc2)C(=O)OC1 (centres undefined)
≥ 62.5 µM: all assays above

CC(=O)OCC1C=C(c2ccc(Br)cc2)C(=O)OC1 (centres undefined)
≥ 62.5 µM: all assays above

CC(C)(C)C(=O)OCC1C=C(c2ccc(Cl)c(Cl)c2)C(=O)OC1 (centres undefined)
≥ 62.5 µM: all assays above

O=C1OCC(COC(=O)c2ccccc2)C=C1c1cccc(Cl)c1 (centres undefined)
≥ 62.5 µM: all assays above

CC(=O)OCC1C=C(c2ccc(Cl)cc2)C(=O)OC1 (centres undefined)
≥ 62.5 µM: all assays above

CC(C)(C)C(=O)OCC1C=C(c2ccccc2)C(=O)OC1 (centres undefined)
≥ 62.5 µM: all assays above

CC(C)(C)C(=O)OCC1C=C(c2ccc(Cl)cc2)C(=O)OC1 (centres undefined)
≥ 62.5 µM: all assays above
